Measurements as given in US10988523B2, “Modified lipidated Relaxin B chain peptides and their therapeutic use” (Sanofi, priority 2018, dated 2021).
Values after ≈ are worked out from the molar mass of the structure shown. Read-outs that look alike come from different tables or passages of the source. Marks after values point to notes of the source that are not given here. *1 amine or outer side, *2 acyl side, *3 side chain or, on linkers, in order; H or OH if unused. Where a SMILES comes first, the peptide text is derived from it. Side-chain parts run from the residue outwards. [ ]: non-standard residue; d: D form. The star is where a group is joined. X2 = CCCCCCCCCCCCCCCCCC(=O)N[C@@H](CCC(=O)N[C@@H](CCC(=O)N[C@@H](CCC(=O)NCCCC[C@H](NC(=O)COCC(=O)NCCCOCCOCCOCCCNC(=O)COCC(=O)NCCCOCCOCCOCCCNC(=O)COCC(=O)NCCCOCCOCCOCCCN*)C(N)=O)C(=O)O)C(=O)O)C(=O)O; γGlu = O=C(O)[C@H](CCC(=O)[*:2])N[*:1]; Palmitoyl = CCCCCCCCCCCCCCCC(=O)*; αMeK = C[C@](N)(CCCCN)C(=O)O; Nle = CCCC[C@H](N)C(=O)O; AEEA = NCCOCCOCC(=O)O; Aib = CC(C)(N)C(=O)O

How the values were obtained:
[1] = molecular target: T1, RXFP1 (Homo sapiens, UniProt Q9HBX9); test: OVCAR5 cAMP assay (HTRF), RXFP1 agonist activity; format: cell-based; settings: for Emax: OVCAR-5; for EC50: OVCAR5 cells expressing endogenous RXFP1, cAMP readout, 30 min, 1 mM IBMX, read-out: EC50 cAMP assay in OVCAR 5 cells
T1 construct: OVCAR5 cells expressing endogenous RXFP1; endogenous in cells; host or cells: OVCAR5 cells
T1 sequence (Q9HBX9 1-757): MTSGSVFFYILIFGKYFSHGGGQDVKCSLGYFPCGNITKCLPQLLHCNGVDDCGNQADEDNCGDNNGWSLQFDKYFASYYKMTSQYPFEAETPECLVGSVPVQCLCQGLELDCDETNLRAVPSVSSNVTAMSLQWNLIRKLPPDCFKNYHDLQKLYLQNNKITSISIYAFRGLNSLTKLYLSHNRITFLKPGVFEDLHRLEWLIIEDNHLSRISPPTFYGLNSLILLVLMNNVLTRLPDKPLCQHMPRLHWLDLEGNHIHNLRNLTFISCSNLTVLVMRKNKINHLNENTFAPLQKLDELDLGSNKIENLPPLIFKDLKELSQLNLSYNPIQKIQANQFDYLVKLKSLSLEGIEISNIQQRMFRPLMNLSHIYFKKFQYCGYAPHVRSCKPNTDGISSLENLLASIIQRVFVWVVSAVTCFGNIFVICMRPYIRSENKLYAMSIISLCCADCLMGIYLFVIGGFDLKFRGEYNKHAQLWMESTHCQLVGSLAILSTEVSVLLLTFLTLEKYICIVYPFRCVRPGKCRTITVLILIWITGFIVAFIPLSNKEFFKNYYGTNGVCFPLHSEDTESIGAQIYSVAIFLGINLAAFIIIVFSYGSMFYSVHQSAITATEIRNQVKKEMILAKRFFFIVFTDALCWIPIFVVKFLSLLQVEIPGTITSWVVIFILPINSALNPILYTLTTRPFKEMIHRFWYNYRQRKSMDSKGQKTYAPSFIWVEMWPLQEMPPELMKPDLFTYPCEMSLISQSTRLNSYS
Summary of the method: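 OVCAR5 cells (endogenous RXFP1) pretreated 40 min at 37° C with 1 mM IBMX, then exposed to peptides in serum-free medium for 30 min at 37° C. Lysate cAMP read by HTRF; EC50 from variable-slope sigmoidal fit; Emax as % of H2-relaxin maximal cAMP in same run.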

[2] = Solubility testing of peptides in buffer; format: physicochemical
Description: Prior to the testing of solubility of a peptide batch, its purity (HPLC-UV) was determined.
Acetate Buffer 50 mM pH4.5: 0.75 g […], 3H2O (Sigma 57545)+0.35 ml CH3CO2H 100% solution dissolved in Millipore water, adjusted to pH with diluted (1:1) CH3CO2H and diluted to 250 ml with Millipore water.
In a 4 ml Ependorph vial, an accurately weighed sample of compound was diluted in study media to obtain target concentration of 2, 6 or 10 mg/ml of pure compound. The sample vials were shacked (rock 'roll shaker) for ˜19 h. 3004, Aliquots ( ) were filtered through a Millipore “Solvinert” plate (0.45 μm—PTFE hydrophilic).
pH was measured with a micro electrode
Waters Acquity UPLC System with DAD detector
Column: Waters Peptide Column CSH C18 (130 Å; 1.7 μm; 50*2.1 mm)
Column temperature: 60° C.
Full loop (about 5 μL)—overfill factor 5
Weak et Strong wash: H2O/ACN (75/25; V/V); Seal wash: H2O/IsOH (95/5; V/V). Mobile phase:
Solvent A: 0.05% TFA in H2O; Solvent B: 0.035% TFA in CH3CN
Gradient: from 0 to 12 min B=2% to 60%, from 12 to 14 min B=60% to 100%. Column washing 100% B 1 min, column equilibration 2% B 2.5 min.
UV detector: wavelength: 220 nm.

[3] = Stability testing of peptides in human plasma or blood; format: in vitro ADME; settings: 37° C.; for Human Plasma stability % remaining T = 0: human plasma or blood, T = 0 (reference); for remaining at 1 h, 5 µM / remaining at 4 h, 5 µM: human plasma; for remaining at 1 h, 5 µM: read-out: Human Plasma stability % remaining 1 h; for remaining at 4 h, 5 µM: read-out: Human Plasma stability % remaining 4 h
Description: (§1) Prior to the testing of stability in plasma (or blood) of a peptide batch, its purity (HPLC-UV) was determined.
(§2) Rat and Human plasma: anti-coagulant sodium or lithium heparin.
(§3) Rat and Human blood: anti-coagulant sodium or lithium heparin. • Stock solution: • 100 μM solution of study compound in 50 mM Phosphate buffer pH 7.4. • 950 μL plasma (or blood) was pre-incubated for 5 min at 37° C. 50 μL of compound stock solution was added. Final compound concentration=5 μM. Vortex and transfer 1504, plasma (or blood) into an Eppendorf for each time point. The time points […] were carried out in duplicate for each species.
(§4) After incubation 150 μL, plasma (or blood) was extracted with 600 μL, Acetonitrile containing with 1% TFA. Then, vortexed and centrifuged 10 min at 14600 rpm. 200 μL supernatant was dried under N2. The sample was reconstituted in 200 μL of H2O/CH3CN 98/2+0.1% FA+50 ng/ml Labetalol and analyzed using the analytical system used in solubility and stability studies.
(§5) For determination of the amount of the remaining peptide, the peak areas of the target compound at t0 and each time point […] were compared, resulting in “% remaining peptide”, following the equation: % remaining peptide=[(peak area peptide time)×100]/peak area peptide t0. The stability is expressed as “% remaining peptide”.

[4] = Stability testing of peptides in rat plasma or blood; format: in vitro ADME; settings: 37° C.; for Rat plasma stability % remaining T = 0: rat plasma or blood, T = 0 (reference); for remaining at 1 h, 5 µM / remaining at 4 h, 5 µM: rat plasma; for remaining at 1 h, 5 µM: read-out: Rat plasma stability % remaining 1 h; for remaining at 4 h, 5 µM: read-out: Rat plasma stability % remaining 4 h
Description: as §1, §2, §3, §4, §5

[5] = Pharmacokinetic (PK) determination after i.v. or s.c. administration to rats; format: in vivo, Sprague Dawley rats; settings: Rat PK; for C0: extrapolated plasma concentration at t=0, read-out: C0
Summary of the method: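 Sprague Dawley rats received peptide in PBS at 1 mg/kg i.v. or 3 mg/kg s.c., dose corrected for salts, solvent and purity. Plasma analysed by LC/MS after protein precipitation; non-compartmental PK, BLQ values set to zero, F% as dose-corrected s.c./i.v. AUC ratio.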

[6] = maximal cAMP relative to H2-relaxin maximal cAMP x 100, read-out: Emax cAMP assay in OVCAR 5 cells
[7] = acetate buffer 50 mM pH 4.5, target solubility 2.0 mg/ml, read-out: Solubility Acetate buffer pH 4.5
[8] = phosphate buffer 50 mM pH 7.4, target solubility 2.0 mg/ml, read-out: Solubility phosphate buffer pH 7.4
[9] = maximal cAMP relative to H2-relaxin maximum (100%), read-out: EMax, OVCAR 5 cells (cAMP)
[10] = Sprague Dawley, plasma, sc, 3 mg/kg s.c.

Compound	Emax [1, 6] [%]	solubility [2, 7] [µg/mL]	solubility [2, 8] [µg/mL]	Human Plasma stability % remaining T = 0 ([3]; 5 μM) [%]	remaining at 1 h, 5 µM ([3]; 1 h) [%]	remaining at 4 h, 5 µM ([3]; 4 h) [%]	Rat plasma stability % remaining T = 0 ([4]; 5 μM) [%]	remaining at 1 h, 5 µM ([4]; 1 h) [%]	remaining at 4 h, 5 µM ([4]; 4 h) [%]	EC50 [1] [nM]	Emax [1, 9] [%]	further results
Ac-VIKLSGRELVRAQIAISGMSTWSKRSL-NH2 [AcB7-33 C11.23S, reference compound]	70	1540	< 1	100	67	18	100	16	2	–	–	–
H-VIKLSGRELVRAQIAISGMSTWSKRSL-NH2 [B7-33 C11.23S, reference compound]	90	–	–	100	18	3	100	15	2	1640	–	Solubility Acetate buffer pH 4.5 ([2]; acetate buffer 50 mM pH 4.5, target solubility 2.0 mg/ml): 1.9 mg/ml; Solubility phosphate buffer pH 7.4 ([2]; phosphate buffer 50 mM pH 7.4, target solubility 2.0 mg/ml): 0.014 mg/ml
CCCCCCCCCCCCCCCC(=O)N[C@@H](CCC(=O)N[C@@H](CCC(=O)N[C@@H](CCC(=O)N[C@@H](CCC(=O)NCCOCCOCC(=O)NCCOCCOCC(=O)NCCOCCOCC(=O)NCCOCCOCC(=O)NCCCC[C@H](NC(=O)[C@H](CCCCNC(C)=O)NC(=O)[C@H](C)NC(=O)[C@H](CCCNC(=N)N)NC(=O)[C@](C)(CCCCN)NC(=O)[C@H](CO)NC(=O)[C@H](Cc1ccccc1)NC(=O)[C@@H](NC(=O)[C@H](CO)NC(=O)[C@H](CCCC)NC(=O)CNC(=O)[C@H](CCC(=O)O)NC(=O)C(C)(C)NC(=O)C(C)(C)NC(=O)[C@@H](NC(=O)[C@H](CCCCNC(C)=O)NC(=O)[C@H](C)NC(=O)[C@H](CCCNC(=N)N)NC(=O)[C@@H](NC(=O)[C@H](CCCCN)NC(=O)[C@H](CCC(=O)O)NC(=O)[C@H](CCCNC(=N)N)NC(=O)CNC(=O)[C@H](CCC(=O)O)NC(=O)[C@H](CC(C)C)NC(C)=O)C(C)C)[C@@H](C)CC)[C@@H](C)O)C(N)=O)C(=O)O)C(=O)O)C(=O)O)C(=O)O [compound 154] (Ac-LEGREKVRAK(Ac)I[Aib][Aib]EG[Nle]STFS[αMeK]RAK(Ac)K([AEEA-AEEA-AEEA-AEEA-γGlu-γGlu-γGlu-γGlu-Palmitoyl])-NH2)	–	–	–	100	–	–	100	–	–	–	92	Solubility Acetate buffer pH 4.5 ([2]; acetate buffer 50 mM pH 4.5, target solubility 10.0 mg/ml): >10 mg/ml****; Solubility phosphate buffer pH 7.4 ([2]; phosphate buffer 50 mM pH 7.4, target solubility 10.0 mg/ml): >10 mg/ml****; Human stability in blood % remaining 1 h ([3]; human blood, 1 h, 5 μM): 91** %; Human stability in blood % remaining 4 h ([3]; human blood, 4 h, 5 μM): 96** %; Rat stability in blood % remaining 1 h ([4]; rat blood, 1 h, 5 μM): 99** %; Rat stability in blood % remaining 4 h ([4]; rat blood, 4 h, 5 μM): 95** %; T½ ([5]; 1 mg/kg i.v.): 5.00 h; C0 ([5]; 1 mg/kg i.v.): 4.52 µM; Cmax ([5]; 3 mg/kg s.c.): 1.89 µM; Tmax (-h) ([5]; 3 mg/kg s.c.): 8.0 h; F % ([5]; 3 mg/kg s.c. vs 1 mg/kg i.v., dose-corrected AUC ratio): 72%
Ac-VIKLSGRELVRAQIAISGMSTWSKKKK-NH2 [KKKK(AcB7-29 C11.23S), reference compound]	84	2300	177	100	41	31	100	23	14	206	–	–
CCCCCCCCCCCCCCCCCC(=O)N[C@@H](CCC(=O)N[C@@H](CCC(=O)N[C@@H](CCC(=O)NCCCC[C@H](NC(=O)COCC(=O)NCCCOCCOCCOCCCNC(=O)COCC(=O)NCCCOCCOCCOCCCNC(=O)COCC(=O)NCCCOCCOCCOCCCNC(=O)[C@H](CCCCNC(C)=O)NC(=O)[C@H](CCCCN)NC(=O)[C@H](CCCNC(=N)N)NC(=O)C(C)(C)NC(=O)[C@H](CO)NC(=O)[C@H](Cc1c[nH]c2ccccc12)NC(=O)[C@@H](NC(=O)[C@H](CO)NC(=O)[C@H](CCCC)NC(=O)CNC(=O)[C@H](CCC(=O)O)NC(=O)C(C)(C)NC(=O)C(C)(C)NC(=O)[C@@H](NC(=O)[C@H](CCCCNC(C)=O)NC(=O)[C@H](C)NC(=O)[C@H](CCCNC(=N)N)NC(=O)[C@@H](NC(=O)[C@H](CCCCN)NC(=O)[C@H](CCC(=O)O)NC(=O)[C@H](CCCNC(=N)N)NC(=O)CNC(=O)[C@H](CCC(=O)O)NC(=O)[C@H](CC(C)C)NC(C)=O)C(C)C)[C@@H](C)CC)[C@@H](C)O)C(N)=O)C(=O)O)C(=O)O)C(=O)O [compound 20] (Ac-LEGREKVRAK(Ac)I[Aib][Aib]EG[Nle]STWS[Aib]RKK(Ac)-X2)	–	–	–	–	–	–	–	–	–	–	88	solubility ([2]; acetate buffer, pH 4.5, read-out: Solubility Acetate buffer pH 4.5): 5600 µg/mL (≈ 1220 µM); solubility ([2]; phosphate buffer, pH 7.4, read-out: Solubility phosphate buffer pH 7.4): 5600 µg/mL (≈ 1220 µM); C0 ([5]; Sprague Dawley, iv, 1 mg/kg i.v.): 4 µM; half-life ([5]; Sprague Dawley, plasma, iv, 1 mg/kg i.v., read-out: T½ (converted)): 3.96 h; Cmax [5, 10]: 3 µM; Tmax [5, 10]: 8 h; bioavailability ([5]; Sprague Dawley, plasma, subcutaneous, 3 mg/kg s.c. vs 1 mg/kg i.v., dose-corrected AUC ratio): 73%
